Test results as given in paper PMC7101355, “Activation and self-inactivation mechanisms of the cyclic oligoadenylate-dependent CRISPR ribonuclease Csm6” (Nature Communications, 2020).

Key:
[1] = molecular target: T1, EiCsm6 (Enterococcus italicus, UniProt E6LHV2); test: X-ray crystal structure of the complex, […] Å; format: binding; conditions: bound at the CARF domain dimer interface, one cFA6 per homodimer
T1 construct: gene csm6; recombinant from E. coli BL21 Star (DE3); N-terminal His6-TEV tag cut; full gene; homodimer, ligand site at the CARF domain interface
T1 sequence (E6LHV2 1-430): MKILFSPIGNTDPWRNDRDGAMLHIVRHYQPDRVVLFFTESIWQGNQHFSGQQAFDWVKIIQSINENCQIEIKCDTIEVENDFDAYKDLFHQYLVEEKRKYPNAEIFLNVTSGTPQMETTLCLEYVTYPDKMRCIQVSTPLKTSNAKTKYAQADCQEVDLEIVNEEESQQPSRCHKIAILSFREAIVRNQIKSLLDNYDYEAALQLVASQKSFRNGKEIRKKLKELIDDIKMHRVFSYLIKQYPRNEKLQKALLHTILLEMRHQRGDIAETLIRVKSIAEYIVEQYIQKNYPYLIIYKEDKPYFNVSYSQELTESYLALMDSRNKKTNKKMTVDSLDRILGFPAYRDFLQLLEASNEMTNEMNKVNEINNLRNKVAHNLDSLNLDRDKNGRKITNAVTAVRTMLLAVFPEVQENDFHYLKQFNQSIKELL

[2] = molecular target: T1, EiCsm6; test: fluorogenic RNaseAlert ribonuclease assay, initial velocities, variable Hill fit; format: biochemical; conditions: 5 nM EiCsm6, 10 mM HEPES pH 7.5, 50 mM KCl; allosteric activator at CARF domain, read-out HEPN RNase
[3] = molecular target: T1, EiCsm6; test: LC-MS degradation assay; RNaseAlert activation assay; format: biochemical; conditions: 25 uM cA6 and 25 uM protein, 37 °C, 1 h; also allosteric activator at CARF domain
[4] = molecular target: the molecule itself; test: crystal structure; EiCsm6 (120 uM) co-crystallised with the cA6 mimic cFA6 (288 uM); 100 mM HEPES pH 7.5, 1.6 M ammonium sulfate, 25 mM lithium perchlorate; space group P1, four homodimers in the asymmetric unit; 2.4 A

Nc1ncnc2c1ncn2[C@@H]1O[C@@H]2COP(=O)(O)O[C@H]3[C@@H](F)[C@H](n4cnc5c(N)ncnc54)O[C@@H]3COP(=O)(O)O[C@H]3[C@@H](F)[C@H](n4cnc5c(N)ncnc54)O[C@@H]3COP(=O)(O)O[C@H]3[C@@H](F)[C@H](n4cnc5c(N)ncnc54)O[C@@H]3COP(=O)(O)O[C@H]3[C@@H](F)[C@H](n4cnc5c(N)ncnc54)O[C@@H]3COP(=O)(O)O[C@H]3[C@@H](F)[C@H](n4cnc5c(N)ncnc54)O[C@@H]3COP(=O)(O)O[C@H]2[C@H]1F [cFA6, 2’-,2’’-,2’’’,2’’’’,2’’’’’,2’’’’’’-hexadeoxy-2’-,2’’,2’’’,2’’’’,2’’’’’,2’’’’’’-hexafluoro-cyclic hexaadenosine monophosphate]
X-ray crystal structure of the complex, 2.4 Å [1]: we co-crystallized EiCsm6 with cFA6 and determined the structure of the complex | EC50 [2]: 170 nM

Nc1ncnc2c1ncn2[C@@H]1O[C@@H]2COP(=O)(O)O[C@H]3[C@@H](O)[C@H](n4cnc5c(N)ncnc54)O[C@@H]3COP(=O)(O)O[C@H]3[C@@H](O)[C@H](n4cnc5c(N)ncnc54)O[C@@H]3COP(=O)(O)O[C@H]3[C@@H](O)[C@H](n4cnc5c(N)ncnc54)O[C@@H]3COP(=O)(O)O[C@H]3[C@@H](O)[C@H](n4cnc5c(N)ncnc54)O[C@@H]3COP(=O)(O)O[C@H]3[C@@H](O)[C@H](n4cnc5c(N)ncnc54)O[C@@H]3COP(=O)(O)O[C@H]2[C@H]1O [cA6]
LC-MS degradation assay; RNaseAlert activation assay [3]: revealing that cA6 was efficiently degraded to yield a mixture of products

B1: Enterococcus italicus Csm6 (EiCsm6), wild type (enzyme)
chain: MKILFSPIGNTDPWRNDRDGAMLHIVRHYQPDRVVLFFTESIWQGNQHFSGQQAFDWVKIIQSINENCQIEIKCDTIEVENDFDAYKDLFHQYLVEEKRKYPNAEIFLNVTSGTPQMETTLCLEYVTYPDKMRCIQVSTPLKTSNAKTKYAQADCQEVDLEIVNEEESQQPSRCHKIAILSFREAIVRNQIKSLLDNYDYEAALQLVASQKSFRNGKEIRKKLKELIDDIKMHRVFSYLIKQYPRNEKLQKALLHTILLEMRHQRGDIAETLIRVKSIAEYIVEQYIQKNYPYLIIYKEDKPYFNVSYSQELTESYLALMDSRNKKTNKKMTVDSLDRILGFPAYRDFLQLLEASNEMTNEMNKVNEINNLRNKVAHNLDSLNLDRDKNGRKITNAVTAVRTMLLAVFPEVQENDFHYLKQFNQSIKELL
notes: Csm6 ribonuclease (CARF and HEPN domains) of the type III CRISPR-Cas system of Enterococcus italicus DSM-15952; gene amplified from genomic DNA; Cloned into the 1B vector (Addgene 29653): N-terminal hexahistidine tag followed by a TEV site, removed with TEV protease; Crystallised with the small-molecule ligand cFA6 (PDB 6TUG) or with cA6; also called WT EiCsm6; source: E. coli BL21 Star (DE3), …
stoichiometry N [4]: 2
